Legend:
[1] = target: T1, HDAC7 (Homo sapiens, UniProt Q8WUI4); experiment: HDAC7 enzyme inhibition (Lys-Ac-AMC); format: biochemical; conditions: Table 4, graded
T1 construct: purchased BPS Bioscience 50007
T1 sequence (Q8WUI4 518-952 limits assumed): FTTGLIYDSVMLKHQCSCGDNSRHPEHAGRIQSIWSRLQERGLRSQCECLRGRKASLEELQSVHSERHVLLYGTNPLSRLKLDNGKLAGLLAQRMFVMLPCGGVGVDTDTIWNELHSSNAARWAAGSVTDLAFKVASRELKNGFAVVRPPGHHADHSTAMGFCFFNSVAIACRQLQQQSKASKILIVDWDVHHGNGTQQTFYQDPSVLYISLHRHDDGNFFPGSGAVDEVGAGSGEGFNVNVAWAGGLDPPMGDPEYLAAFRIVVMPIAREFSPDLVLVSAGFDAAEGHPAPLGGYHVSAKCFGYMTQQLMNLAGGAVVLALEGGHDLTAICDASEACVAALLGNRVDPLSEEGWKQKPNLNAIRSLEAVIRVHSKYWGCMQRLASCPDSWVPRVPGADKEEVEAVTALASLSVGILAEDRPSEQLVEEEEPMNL
Protocol: (§1) Determining the inhibition capability of HDAC through the substrate method of fluorophore coupled acetylized peptide fragment (Lys-Ac-AMC). HDAC2-11 proteins of subtypes are purchased from BPS Bioscience Company with the Art. […] The reaction buffer system is a modified Tris buffer (pH7.0). The small molecule compounds are prepared and dissolved with 100% DMSO. […] Adding the compound into the reaction wells of the 384 well plate at the designed concentration, then adding 15 μL HDAC enzyme solution into the reaction wells (adding 15 μL blank buffer into the control well 0) for incubation under ambient temperature for 15 min; then adding 10 μL substrate solution to start reaction.
(§2) Analyzing the result data with the software GraphPad Prism and calculating the value of IC50 as per the formula: Y=background data+(top data−background data)/(1+10^((Log IC50−X)*rate of curve)). Where, Y refers to the inhibition ratio (%) and X refers to the compound concentration.

[2] = tested on: acetylated Ac-α-tubulin in A2780s cells; experiment: Induction of α-tubulin acetylation in A2780s cells (cytoblot); format: cell-based; conditions: Homo sapiens, 6 h treatment, read-out: Ac-Tub EC50
Protocol: Specific operation: After the treatment, washing each well once with 50-100 μl of cold TBS buffer [with the composition as 20 mM Tris (trismetyl aminomethane), pH7.5] and fixing it with 100 μL of 4% pre-cooled paraformaldehyde at 4° C. for 1 h; after paraformaldehyde is washed off, adding 50 μL of pre-cooled methyl alcohol in each well and evenly spreading at 4° C. for 5 min; after methyl alcohol is washed off, washing it once with the TBS buffer containing 3% skim milk powder and adding 50 μL of antibody fluid, oscillating it slightly at 4° C. and incubating overnight. For determination of Ac—H3, the antibody fluid is prepared by diluting Ac—H3 antibody and horseradish peroxide coupled secondary antibody to a same system with the TBS buffer containing 3% skim milk powder (Ac—H3 antibody is purchased from Santa Cruz Company and diluted at a ratio of 1:100; horseradish peroxide coupled secondary antibody is purchased from Jackson Company and diluted at a ratio of 1:2000); for determination of acetylated Ac-α-tubulin, the antibody fluid is prepared by diluting Ac-α-tubulin antibody and horseradish peroxide coupled secondary antibody to a same system with the TBS buffer containing 3% skim milk powder (Ac-α-tubulin antibody is purchased from Santa Cruz Company and diluted at a ratio of 1:100; horseradish peroxide coupled secondary antibody is purchased from Jackson Company and diluted at a ratio of 1:2000).
Calculating the value of IC50 as per the formula: Y=background data+(top data−background data)/(1+10^((Log EC50−X)*rate of curve)) Where, Y refers to the activating rate (%) and X refers to the compound concentration.

[3] = tested on: RPMI-8226 cells (multiple myeloma); experiment: Proliferation inhibition, RPMI-8226 (cck-8); format: cell-based; conditions: Homo sapiens, 96 h incubation
Source text: (§3) Calculating the value of IC50 as per the formula: Y=background data+(top data−background data)/(1+10^((Log IC50−X)*rate of curve)). Where, Y refers to the inhibition ratio (%) and X refers to the compound concentration.

[4] = target: T2, PI3Kγ (Homo sapiens, UniProt P48736); experiment: PI3Kγ activity inhibition (ADP-Glo); format: biochemical
T2 construct: purchased Invitrogen PR8641C
Protocol: Detecting the inhibition capability of the compound to PI3Kβ and PI3Kγ activities with ADP-Glo (purchased from Promege Company; Catalog No.: v9102/3). […] The reaction system also comprises substrates as PIP2 and ATP. The reaction buffer system comprises 50 mM HEPES, 3 mM MgCl2, 1 mM EGTA, 100 mM NaCl, 0.03% CHAPS and 2 mM DTT. The pH value of the reaction buffer is 7.5. […] Mixing the system evenly for incubation under ambient temperature for 1 h; getting a new 384 well plate and transferring 5 μL reaction liquid from the each well of original 384 well plate to the corresponding wells of the new 384 well plate; adding 5 μL ADP-Glo which has been preheated to ambient temperature into each new reaction well to terminate the reaction; oscillating it slowly in dark place for 40 min's incubation after it is mixed evenly; adding 10 μL testing liquid in each reaction well, oscillating it for 1 min to mix evenly and incubating it for 1 h, then measuring the fluorescence intensity with a microplate reader and analyzing the result data with the software GraphPad Prism.
Calculating the value of IC50 as per the formula: Y=background data+(top data−background data)/(1+10^((Log IC50−X)*rate of curve))
Where, Y refers to the inhibition ratio (%) and X refers to the compound concentration.

[5] = tested on: MM1S cells (multiple myeloma); experiment: Proliferation inhibition, MM1S (cck-8); format: cell-based; conditions: Homo sapiens, MM1.S; 96 h incubation
Source text: as §3

[6] = target: T3, HDAC9 (Homo sapiens, UniProt Q9UKV0); experiment: HDAC9 enzyme inhibition (Lys-Ac-AMC); format: biochemical; conditions: Table 4, graded
T3 construct: purchased BPS Bioscience 50009
Protocol: as §1, §2

[7] = tested on: Ramos cells (B-cell lymphoma); experiment: Proliferation inhibition, Ramos (cck-8); format: cell-based; conditions: Homo sapiens, 96 h incubation
Source text: as §3

T2 sequence (P48736 whole entry): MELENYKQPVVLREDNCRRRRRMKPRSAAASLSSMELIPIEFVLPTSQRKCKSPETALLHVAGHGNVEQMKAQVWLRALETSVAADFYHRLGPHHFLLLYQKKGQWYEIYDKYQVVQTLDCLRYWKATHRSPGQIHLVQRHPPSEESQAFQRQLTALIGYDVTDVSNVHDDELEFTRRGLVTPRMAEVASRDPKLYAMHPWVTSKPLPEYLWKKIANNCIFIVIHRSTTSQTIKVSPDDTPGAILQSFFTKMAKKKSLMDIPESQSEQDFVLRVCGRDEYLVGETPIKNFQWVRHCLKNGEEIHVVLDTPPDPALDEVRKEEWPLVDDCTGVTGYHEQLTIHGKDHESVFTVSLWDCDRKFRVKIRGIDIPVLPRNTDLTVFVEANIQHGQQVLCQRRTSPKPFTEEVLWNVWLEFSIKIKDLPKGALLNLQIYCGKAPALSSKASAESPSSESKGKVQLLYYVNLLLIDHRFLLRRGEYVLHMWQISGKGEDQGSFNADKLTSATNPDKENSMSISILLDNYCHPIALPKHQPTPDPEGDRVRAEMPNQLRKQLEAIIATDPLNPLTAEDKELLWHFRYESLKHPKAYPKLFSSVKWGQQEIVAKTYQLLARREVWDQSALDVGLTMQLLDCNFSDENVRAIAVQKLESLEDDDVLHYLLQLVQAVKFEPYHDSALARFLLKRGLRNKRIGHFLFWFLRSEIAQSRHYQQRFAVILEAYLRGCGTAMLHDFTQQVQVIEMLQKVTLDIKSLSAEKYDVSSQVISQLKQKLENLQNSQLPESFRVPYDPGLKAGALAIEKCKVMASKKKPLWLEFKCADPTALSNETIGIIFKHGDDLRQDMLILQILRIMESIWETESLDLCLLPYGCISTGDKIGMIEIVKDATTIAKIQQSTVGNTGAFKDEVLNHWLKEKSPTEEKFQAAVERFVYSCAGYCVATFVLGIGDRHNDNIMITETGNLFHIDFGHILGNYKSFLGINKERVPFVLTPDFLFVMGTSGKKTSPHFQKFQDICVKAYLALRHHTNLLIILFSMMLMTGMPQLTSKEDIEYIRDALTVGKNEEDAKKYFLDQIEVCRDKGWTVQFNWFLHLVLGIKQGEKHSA
T3 sequence (Q9UKV0 1-1066 isoform Q9UKV0-5): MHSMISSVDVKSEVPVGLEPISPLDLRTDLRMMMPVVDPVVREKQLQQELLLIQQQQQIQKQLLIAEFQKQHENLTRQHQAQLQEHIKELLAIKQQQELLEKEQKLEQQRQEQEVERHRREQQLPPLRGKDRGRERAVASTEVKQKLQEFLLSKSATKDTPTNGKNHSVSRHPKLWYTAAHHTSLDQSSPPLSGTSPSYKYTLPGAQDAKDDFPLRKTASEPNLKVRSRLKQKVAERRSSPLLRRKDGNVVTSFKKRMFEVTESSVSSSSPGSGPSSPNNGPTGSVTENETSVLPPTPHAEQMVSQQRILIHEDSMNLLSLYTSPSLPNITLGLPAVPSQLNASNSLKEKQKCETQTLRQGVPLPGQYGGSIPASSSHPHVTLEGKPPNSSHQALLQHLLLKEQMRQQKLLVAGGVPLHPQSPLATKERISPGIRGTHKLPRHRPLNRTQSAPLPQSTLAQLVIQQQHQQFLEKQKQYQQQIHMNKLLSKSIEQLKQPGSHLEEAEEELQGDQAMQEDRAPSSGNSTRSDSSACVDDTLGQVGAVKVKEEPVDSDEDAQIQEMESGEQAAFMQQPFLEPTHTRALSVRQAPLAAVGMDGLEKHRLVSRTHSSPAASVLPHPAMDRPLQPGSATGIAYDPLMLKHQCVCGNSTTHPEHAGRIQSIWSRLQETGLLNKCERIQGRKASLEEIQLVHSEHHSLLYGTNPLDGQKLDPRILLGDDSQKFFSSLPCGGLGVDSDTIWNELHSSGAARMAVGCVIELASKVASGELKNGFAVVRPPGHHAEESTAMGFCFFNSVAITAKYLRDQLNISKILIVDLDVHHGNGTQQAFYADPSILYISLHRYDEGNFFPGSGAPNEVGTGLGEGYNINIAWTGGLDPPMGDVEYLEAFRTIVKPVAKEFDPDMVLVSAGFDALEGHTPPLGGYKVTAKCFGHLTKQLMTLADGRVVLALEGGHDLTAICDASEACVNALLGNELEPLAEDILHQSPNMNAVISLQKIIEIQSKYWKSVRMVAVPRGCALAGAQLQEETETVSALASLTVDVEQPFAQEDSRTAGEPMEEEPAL

Structure (SMILES) | IC50 [1] [nM] | EC50 [2] [nM] | IC50 [3] [nM] | IC50 ([4]; Table 1, graded) [nM] | IC50 ([4]; Table 4, graded) [nM] | IC50 [5] [nM] | IC50 [6] [nM] | IC50 [7] [nM]
COc1ccc(-c2nc(N3CCOCC3)c3nc(CN(C)c4ncc(C(=O)NO)cn4)n(C)c3n2)cn1 [CLJ-1, 2-(((2-(6-methoxypyridine-3-yl)-9-methyl-6-morpholine-9H-purine-8-yl))methyl(methyl)amino)-N-hydroxyl pyrimidine-5-formamide] | 1000 to 10000 | 100 to 200 | 1 to 10 | 100 to 1000 | 100 to 1000 | 0.1 to 1 | 1000 to 10000 | 0.1 to 1
CN(Cc1nc2c(N3CCOCC3)nc(-c3cnc(N)nc3)nc2n1C)c1ncc(C(=O)NO)cn1 [CLJ-11, 2-(((2-(2-aminopyrimidine-5-yl)-9-methyl-6-morpholine-9H-purine-8-yl))methyl(methyl)amino)-N-hydroxyl pyrimidine-5-formamide] | 100 to 1000 | 100 to 200 | 10 to 100 | 100 to 1000 | 1 to 100 | 1 to 10 | 1000 to 10000 | 10 to 100
COc1ccc(-c2nc(N3CCOCC3)c3nc(CN(C)c4ncc(C(=O)NO)cn4)n(C)c3n2)cc1 [CLJ-29, 2-(((2-(4-methoxyphenyl)-9-methyl-6-morpholine-9H-purine-8-yl))methyl(methyl)amino)-N-hydroxyl pyrimidine-5-formamide] | 1000 to 10000 | > 200 | 0.1 to 1 |  | > 10000 | 0.1 to 1 | 1000 to 10000 | 1 to 10
CN(Cc1nc2c(N3CCOCC3)nc(-c3ccc(N)cc3)nc2n1C)c1ncc(C(=O)NO)cn1 [CLJ-44] | 1000 to 10000 | > 200 | 0.1 to 1 |  | > 10000 | 1 to 10 | 1000 to 10000 | 1 to 10
Cc1[nH]c2ccccc2c1CCNCc1ccc(/C=C/C(=O)NO)cc1 [LBH589, panobinostat, reference compound] |  | 100 to 200 | 1 to 10 |  | > 10000 | 1 to 10 |  | 0.1 to 1

Reference: patent US10227347B2, “Purinyl-N-hydroxyl pyrimidine formamide derivative, preparation methods and uses thereof” (Guizhou Bailing Group Pharmaceutical CO., LTD., priority 2015, dated 2019)
